From patent US11850234B2, “Enhancement of cancer treatment efficiency via the sphingosine-1-phosphate pathway” (priority 2017, dated 2023)

How the values were obtained:
[1] = test system: breast cancer metastatic cell line; settings: 10 μM of S1P co-administered; cited from earlier work
[2] = test system: CAM-grafted pancreas, lung and ovarian tumors; assay: Neoadjuvant effect in the CAM (Chicken Chorioallantoic Model) with grafted tumors; assay type: in vivo; settings: compared to CAM-grafted tumors not previously treated with the neoadjuvants
Method: The neoadjuvant effect of benzylphthalazine and imidazole derivatives according to the present invention are assessed for their neoadjuvant effect against pancreas, lung and ovarian tumors.
The neoadjuvant effect is evaluated using the CAM (Chicken Chorioallantoic Model) as described by Sliwinska et al. (Sliwinska et al., Angiogenesis, 2014, 14(4), 779-804).

[3] = test system: pancreatic adenocarcinoma; assay: Overall survival of pancreatic adenocarcinoma patients under gemcitabine chemotherapy, by plasmatic S1P concentration; assay type: in vivo, human

Structure (SMILES) | effect on cytotoxicity of docetaxel, doxorubicin and cyclophosphamide [1] | cytotoxic effect against CAM-grafted tumors pretreated with neoadjuvant [2] | overall survival median ([3]; conventional gemcitabine chemotherapy, plasmatic S1P higher than 650 nM versus lower, FIG. 3) | overall survival ([3]; patients having a high plasmatic S1P concentration (>650 nM), FIG. 5)
CCCCCCCCCCCCC/C=C/[C@@H](O)[C@@H](N)COP(=O)(O)O [S1P, Sphingosine-1-phosphate] | increased the cytotoxicity | – | – | –
Nc1ccn([C@@H]2O[C@H](CO)[C@@H](O)C2(F)F)c(=O)n1 [gemcitabine] | – | enhanced | better overall survival median | 12.3 months
CC(=O)O[C@H]1C(=O)[C@@]2(C)[C@H]([C@H](OC(=O)c3ccccc3)[C@]3(O)C[C@H](OC(=O)[C@H](O)[C@@H](NC(=O)c4ccccc4)c4ccccc4)C(C)=C1C3(C)C)[C@]1(OC(C)=O)CO[C@@H]1C[C@@H]2O [paclitaxel] | – | enhanced | – | –
